From ChEMBL document CHEMBL1201862, “PubChem BioAssay data set” (2004) come the findings set out here.

Some test systems named below: SR; HCC 2998; SF-295; OVCAR-3; SNB-75; NCI-H23; SF-539; UO-31; SF-268; KM12; SN12C; ACHN; UACC-257; SK-MEL-28; MDA-MB-435; NCI-H226; DU-145; MCF7; M14.
Assay in all cases: NCI-60 cell line screen, 48 h

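Values below derive from 48-hour exposures of cells grown in 96-well plates, with endpoints linearly interpolated between the two concentrations bracketing the appropriate inhibition level. At the GI50, growth is halved.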 Calls of active or inactive are those of the source. Cut-off read from the data, not from the text of the source: active = GI50 up to about 1.1 µM and inactive = higher. Where a SMILES comes first, the peptide text is derived from it. [ ]: non-standard residue; d: D form. Phe(4-NO2) = N[CH](Cc1ccc([N+](=O)[O-])cc1)C(=O)O Some results are limits rather than exact numbers.

As for `ClC(Cl)[Si]12OCCN(CCO1)CCO2`, the GI50 with SR, in the assay with HCC 2998, in the assay on SF-295, in the assay on OVCAR-3, with SNB-75 and in the assay with NCI-H23 was > 100 µM (inactive) throughout. Moreover, the GI50 in the assay on SF-539, in the assay on UO-31, with SF-268, in the assay on KM12, in the assay with SN12C and in the assay on ACHN was > 100 µM (inactive) in each case. Also, the GI50 in the assay on UACC-257 and with SK-MEL-28 was > 100 µM (inactive) throughout.

Regarding `CC(NC(=O)C(Cc1ccc([N+](=O)[O-])cc1)NC(=O)C(N)CCCCN)C(=O)NC(Cc1ccc([N+](=O)[O-])cc1)C(N)=O` (stereo not given) (H-K[Phe(4-NO2)]A[Phe(4-NO2)]-NH2; configuration not given here), the GI50 with MDA-MB-435 was > 52.6 µM (inactive); in the assay on NCI-H226 it was 98.9 µM (inactive); in the assay on HCC 2998, 28.1 µM (inactive); in the assay with SF-295 it was 32.7 µM (inactive); in the assay with DU-145, 53.5 µM (inactive); in the assay on OVCAR-3 it was 17.4 µM (inactive). For the same compound, the GI50 is > 37.5 µM (inactive) in the assay with SNB-75; 85.3 µM (inactive) in the assay on NCI-H23; 58.1 µM (inactive) with SF-539; 44.4 µM (inactive) in the assay with UO-31; > 50 µM (inactive) in the assay on SF-268; > 40.7 µM (inactive) in the assay on MCF7. The GI50 in the assay on KM12 is 23.4 µM (inactive); with SN12C, 24.9 µM (inactive); in the assay with M14 it was > 50.5 µM (inactive); with ACHN, 32.8 µM (inactive); with UACC-257, > 68.2 µM (inactive); in the assay with SK-MEL-28 it was 75.7 µM (inactive).

`CSc1cc(Br)ccc1-n1c(C(=O)c2ccccc2)c(SC)n(-c2ccccc2)c1=O`: the GI50 was 7.59 µM (inactive) in the assay with MDA-MB-435; > 100 µM (inactive) in the assay with NCI-H226; 74.5 µM (inactive) in the assay on SR; 86.9 µM (inactive) in the assay on HCC 2998; 84.5 µM (inactive) with SF-295; > 100 µM (inactive) with OVCAR-3. Moreover, the GI50 in the assay with SNB-75 is > 100 µM (inactive); with NCI-H23, 86.3 µM (inactive); with SF-539, > 100 µM (inactive); in the assay with UO-31 it was 67 µM (inactive); with SF-268, > 100 µM (inactive); with MCF7, 63.1 µM (inactive). The GI50 was > 100 µM (inactive) in the assay with KM12; > 100 µM (inactive) in the assay on SN12C; 96.2 µM (inactive) with M14; > 100 µM (inactive) in the assay on ACHN; > 100 µM (inactive) in the assay with UACC-257; > 100 µM (inactive) in the assay with SK-MEL-28.

`N#CSC/C(Cl)=C/Cl.N#CSC/C(Cl)=C\Cl`: the GI50 in the assay on MDA-MB-435 is > 100 µM (inactive); in the assay on NCI-H226 it was > 100 µM (inactive); in the assay on SR, > 100 µM (inactive); in the assay with HCC 2998 it was 0.069 µM (active); with SF-295 it was > 100 µM (inactive); with DU-145, > 100 µM (inactive). In addition, the GI50 in the assay on OVCAR-3, in the assay on SNB-75, in the assay on NCI-H23, in the assay on SF-539, with UO-31 and with SF-268 was > 100 µM (inactive) each time. The GI50 in the assay with KM12, in the assay on SN12C, in the assay with M14, with ACHN, in the assay with UACC-257 and with SK-MEL-28 was > 100 µM (inactive) throughout.

For `C=CCC1OC(C)(C)Oc2ccc(OCOCCOC)cc21` (stereo not given), the GI50 was > 10 µM (inactive) with NCI-H226; > 100 µM (inactive) in the assay with HCC 2998; > 100 µM (inactive) with SF-295; > 100 µM (inactive) in the assay with OVCAR-3; > 100 µM (inactive) in the assay on SNB-75; > 100 µM (inactive) with NCI-H23. Moreover, the GI50 in the assay on SF-539, in the assay with UO-31, in the assay with SF-268, with KM12, in the assay on SN12C and in the assay on M14 was > 100 µM (inactive) each time. The GI50 in the assay with ACHN, in the assay on UACC-257 and in the assay on SK-MEL-28 was > 100 µM (inactive) each time.

In the case of `O=C(N=C1N(c2ccccc2)C(=O)C(=O)N1c1ccccc1)c1ccccc1`, the GI50 in the assay with MDA-MB-435 is 22.9 µM (inactive); in the assay with NCI-H226, 12 µM (inactive); in the assay with SR it was 7.46 µM (inactive); in the assay on HCC 2998 it was 8.53 µM (inactive); in the assay on SF-295, 11.3 µM (inactive); in the assay with DU-145, 6.7 µM (inactive). For the same compound, the GI50 was 11.3 µM (inactive) with SNB-75; 13.6 µM (inactive) in the assay with NCI-H23; 12.6 µM (inactive) in the assay with SF-539; 14.5 µM (inactive) in the assay with UO-31; 15.1 µM (inactive) in the assay with SF-268; 17.3 µM (inactive) with KM12. Also, the GI50 in the assay with SN12C is 10.6 µM (inactive); in the assay on ACHN, 3.78 µM (inactive); in the assay on UACC-257 it was 29.9 µM (inactive); in the assay with SK-MEL-28, 17.5 µM (inactive).

On to `CCSC1SC(c2ccccc2)(c2ccccc2)c2ccccc21` (stereo not given), for which the GI50 with MDA-MB-435 was 33.7 µM (inactive); in the assay with NCI-H226 it was 31.6 µM (inactive); with HCC 2998, 45.1 µM (inactive); in the assay with SF-295, 70 µM (inactive); in the assay with DU-145, 64.7 µM (inactive); with OVCAR-3, 23.8 µM (inactive). For the same compound, the GI50 in the assay on SNB-75 was 87.9 µM (inactive); with NCI-H23 it was 47.9 µM (inactive); in the assay with SF-539, > 100 µM (inactive); with UO-31 it was 47.5 µM (inactive); in the assay with SF-268, 93.1 µM (inactive); with MCF7, 33.7 µM (inactive). Besides, the GI50 is 38.5 µM (inactive) in the assay with KM12; 38.3 µM (inactive) in the assay on SN12C; 31.2 µM (inactive) in the assay on M14; 44.7 µM (inactive) with ACHN; 26.4 µM (inactive) in the assay with UACC-257; 79.8 µM (inactive) in the assay with SK-MEL-28.

As for `COc1ccc(/C=C2\CCC(C)C3C2=NN(c2ccccc2)C3c2ccc(OC)c(OC)c2)cc1OC` (stereo not given), the GI50 in the assay on MDA-MB-435 was 3.64 µM (inactive); in the assay with NCI-H226 it was 2.69 µM (inactive); in the assay on SF-295, 2.64 µM (inactive); in the assay on DU-145 it was 3.01 µM (inactive); with OVCAR-3, 5.04 µM (inactive); in the assay with SNB-75 it was 1.18 µM (inactive). The GI50 is 4.21 µM (inactive) with NCI-H23; 2.48 µM (inactive) with SF-539; 6.12 µM (inactive) with UO-31; 3.89 µM (inactive) in the assay with SF-268; 3.21 µM (inactive) in the assay on MCF7; 2.46 µM (inactive) with KM12. For the same compound, the GI50 is 4.1 µM (inactive) in the assay on SN12C; 4.66 µM (inactive) with M14; 3.84 µM (inactive) with ACHN; 4.34 µM (inactive) in the assay with UACC-257; 4.97 µM (inactive) with SK-MEL-28.

On to `O=C1CC(CC(O)C(O)CO)CC(=O)N1` (stereo not given), for which the GI50 with MDA-MB-435, in the assay with NCI-H226, in the assay with HCC 2998, in the assay on SF-295, in the assay on DU-145 and with OVCAR-3 was > 100 µM (inactive) each time. Moreover, the GI50 in the assay with NCI-H23, in the assay on SF-539, in the assay on UO-31, in the assay on SF-268, with MCF7 and in the assay with KM12 was > 100 µM (inactive) in each case. For the same compound, the GI50 in the assay on SN12C, with M14, with ACHN, in the assay with UACC-257 and in the assay with SK-MEL-28 was > 100 µM (inactive) in each case.

With `C[C@]12CC/C(=N\OCCN3CCCC3)C=C1CCC1C2CC[C@@]2(C)C1CC[C@]2(C)O` (stereo not given in full), the GI50 is 2.28 µM (inactive) in the assay with MDA-MB-435; 2.9 µM (inactive) in the assay with NCI-H226; 11.8 µM (inactive) in the assay with HCC 2998; 3.35 µM (inactive) in the assay with SF-295; 11.3 µM (inactive) in the assay with DU-145; 8.39 µM (inactive) in the assay with OVCAR-3. In addition, the GI50 in the assay on SNB-75 was 2.3 µM (inactive); with NCI-H23, 12.2 µM (inactive); in the assay on SF-539, 6.62 µM (inactive); in the assay on UO-31, 11.7 µM (inactive); in the assay on SF-268, 13.3 µM (inactive); with MCF7, 5.37 µM (inactive). The GI50 was 5.09 µM (inactive) in the assay with KM12; 7.13 µM (inactive) in the assay with SN12C; 13.9 µM (inactive) with M14; 11.1 µM (inactive) in the assay with ACHN; 5.6 µM (inactive) in the assay with UACC-257.

As to `CN(CCNC(=O)c1nn(-c2ccccc2)c2c1Cc1ccccc1-2)CCNC(=O)c1nn(-c2ccccc2)c2c1Cc1ccccc1-2`, the GI50 in the assay on MDA-MB-435 was 1.61 µM (inactive); in the assay on HCC 2998 it was 1.74 µM (inactive); in the assay with SF-295 it was 1.81 µM (inactive); in the assay on DU-145, 2.59 µM (inactive); with OVCAR-3 it was 1.68 µM (inactive); in the assay on SNB-75, 1.69 µM (inactive). The GI50 was 1.87 µM (inactive) in the assay with NCI-H23; 2.17 µM (inactive) in the assay with SF-539; 1.63 µM (inactive) with UO-31; 2.02 µM (inactive) in the assay with SF-268; 1.64 µM (inactive) in the assay with MCF7; 1.79 µM (inactive) in the assay with KM12. Moreover, the GI50 was 1.83 µM (inactive) with SN12C; 1.79 µM (inactive) in the assay on M14; 1.74 µM (inactive) with ACHN; 1.79 µM (inactive) with UACC-257; 1.69 µM (inactive) in the assay on SK-MEL-28.
